Assay results as given in patent US20200172911A1, “USP30 INHIBITORS AND METHODS OF USE” (Genentech, Inc., priority 2012, published 2020).
Read-outs that look alike come from different tables or passages of the source. Where a SMILES comes first, the peptide text is derived from it. Bridges are numbered along the chain shown (N, C = ends).

Experiments:
[1] = test system: Drosophila; experiment: climbing assay with paraquat; assay type: in vivo; conditions: control flies, paraquat 10 mM 48 hours, L-DOPA 1 mM 48 hours
Procedure: Climbing assays were performed using the following Drosophila lines: y, w; Actin5C-GAL4/CyO, y+ (Actin only); y, w; UAS-CG3016-RNAi/CyO, y+ (RNAi only); y, w; UAS-CG3016^RNAi, Actin5C-GAL4/CyO, y+ (USP30 knockdown).
1-day old adult males were fed a solution containing 5% sucrose only (in water) or 5% sucrose+10 mM paraquat (in water) on saturated Whatman paper. After 48 hours of treatment, flies were anesthetized using carbon dioxide and transferred in groups of ten to vials containing only 1% agarose for a 1-hour recovery period from the effects of carbon dioxide. The flies were then transferred into a new glass tube, gently tapped to the bottom and scored for their ability to climb. The number of flies climbing vertically >15 cm in 30 seconds was recorded.
To examine the effect of suppressing USP30 in neurons that are relevant to PD, we used dopamine decarboxylase (Ddc)-GAL439 to drive dUSP30^RNAi specifically in aminergic neurons of the fly nervous system. As a model of mitochondrial damage and PD, we treated flies with paraquat, a mitochondrial toxin linked to PD (Castello et al., J. Biol. Chem., 282: 14186-14193 (2007); Cocheme et al., J. Biol. Chem., 283: 1786-1798 (2008); Tanner et al., Environmental Health Perspect., 119: 866-872 (2011)). […]

[2] = biological target: T1, USP30_cd (USP30 catalytic domain with C77A mutation) (Homo sapiens, UniProt Q70CQ3, C77A); experiment: spot phage ELISA against biotinylated USP30_cd; assay type: binding; conditions: USP30_cd on NeutrAvidin plate versus NeutrAvidin plate alone
T1 construct: biotinylated USP30_cd (USP30 catalytic domain with C77A mutation); biotin (biotinylated)
T1 sequence (Q70CQ3 68-502 C77A limits assumed): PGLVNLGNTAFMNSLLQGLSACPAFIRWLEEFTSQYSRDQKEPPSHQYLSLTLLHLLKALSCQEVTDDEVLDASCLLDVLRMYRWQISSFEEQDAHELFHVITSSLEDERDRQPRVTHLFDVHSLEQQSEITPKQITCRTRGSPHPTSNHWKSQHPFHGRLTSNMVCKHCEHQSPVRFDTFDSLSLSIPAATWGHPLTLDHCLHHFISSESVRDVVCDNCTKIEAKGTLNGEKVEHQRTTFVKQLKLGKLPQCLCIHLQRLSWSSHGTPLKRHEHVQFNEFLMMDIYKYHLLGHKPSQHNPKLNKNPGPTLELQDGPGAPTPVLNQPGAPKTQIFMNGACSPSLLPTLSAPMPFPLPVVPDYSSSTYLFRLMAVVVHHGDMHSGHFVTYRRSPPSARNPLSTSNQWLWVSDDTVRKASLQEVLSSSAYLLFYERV
Description: The selection identified peptide USP30_3 and USP30_8, which had moderate spot ELISA signals (signal/noise ratios of ˜5). USP_30 and USP_8 have the sequences:
Peptide USP30_3 was selected for affinity maturation. To improve the affinity, a soft randomized library was constructed using the USP30_3 sequence as the targeted parent, and panned against USP30_cd in solution as described previously (Stanger, et al., 2012, Nat. Chem. Bio., 7: 655-660). After four rounds of solution panning, 20 peptides were identified that bound to USP30 catalytic domain with stronger spot phage ELISA signal than the parent USP30_3, manifested by an improvement in the signal/noise ratio of about 3-6 fold.
The sequences for certain affinity matured peptides are shown below the graph, along with the signal to noise ratio (“S/N”), which is the ratio of the spot phage ELISA signal (“signal”) detected against biotinylated USP30 cd captured on NeutrAvidin-coated 384 well Maxisorb plates versus the ELISA signal against the NeutrAvidin-coated plate alone. […] All of the affinity matured peptides shown had signal to noise ratios of greater than 10 except for USP30_3.27 and USP30_3.62.

[3] = test system: Drosophila; assay type: in vivo; conditions: Actin-GAL4 and UAS-dUSP30^RNAi control groups, paraquat 10 mM, 96 hours
Procedure: Ten adult 1-day old males per vial were fed a solution containing 5% sucrose only (in water) or 5% sucrose+10 mM paraquat (in water) on saturated Whatman paper. The number of live flies was counted at described intervals.
To test whether USP30 knockdown has an effect on organism survival, we monitored the percentage of live flies over prolonged treatment with paraquat (10 mM, 96 hours). […] Only <15% of flies treated with paraquat were alive in Actin-GAL4 and UAS-dUSP30^RNAi control groups at 96 hours whereas ˜45% of flies were alive in the Actin-GAL4>UAS-dUSP30^RNAi (‘whole body dUSP30 knockdown’) group (FIG. 12G). We confirmed that the benefit of USP30 knockdown was not due to differences in exposure to paraquat since all three fly lines ingested roughly equal amounts of paraquat as measured by LC-MS/MS (average mass of paraquat per fly: UAS-dUSP30^RNAi: 3.2 μg, Actin-GAL4: 2.7 μg, Actin-GAL4>UAS-dUSP30R^RNAi: 2.7 μg). […] Remarkably, USP30 knockdown specifically in Ddc neurons was sufficient to provide significant survival benefit, albeit less than the whole body USP30 knockdown (FIG. 12H).

[4] = test system: Drosophila; experiment: dopamine levels in fly heads by ELISA; assay type: in vivo; conditions: control fly lines, paraquat 10 mM, 48 hours
Description: To examine the effect of suppressing USP30 in neurons that are relevant to PD, we used dopamine decarboxylase (Ddc)-GAL439 to drive dUSP30^RNAi specifically in aminergic neurons of the fly nervous system. As a model of mitochondrial damage and PD, we treated flies with paraquat, a mitochondrial toxin linked to PD (Castello et al., J. Biol. Chem., 282: 14186-14193 (2007); Cocheme et al., J. Biol. Chem., 283: 1786-1798 (2008); Tanner et al., Environmental Health Perspect., 119: 866-872 (2011)). […] This climbing defect was fully rescued by additional treatment with L-DOPA (FIG. 17D), showing that this behavioral deficit is likely due to depletion of dopamine. Consistently, in control fly lines (Ddc-GAL4 or UAS-dUSP30^RNAi transgenics alone), paraquat treatment (10 mM, 48 hours) caused a 30-60% reduction in dopamine levels in fly heads without altering serotonin neurotransmitter levels (indicating specific toxicity of paraquat on the dopaminergic system in this model—FIG. 12F and FIG. 17E).

[5] = assay type: in vivo, Drosophila; conditions: 10 mM, 48 hours
Procedure: 1-day old adult males were fed a solution containing 5% sucrose only (in water) or 5% sucrose+10 mM paraquat (in water) on saturated Whatman paper. After 48 hours of treatment, 15 flies were collected per condition and homogenized in 100 μL water. Standard curve samples were generated by spiking appropriate amounts of paraquat to homogenates from untreated flies. Then the samples were vortex mixed, 200 μL of acetonitrile containing internal standard (Propranolol) was added. The samples were vortexed again and centrifuged at 10,000×g for 10 min. Supernatants were transferred to a new plate that contained 200 μL of water and analyzed by LC-MS/MS to quantify for concentrations of paraquat. The LC-MS/MS consisted of an Agilent 1100 series HPLC system (Santa Clara, Calif.) and an HTS PAL autosampler from CTC Analytics (Carrboro, N.C.) coupled with a 4000 Q TRAP® MS and TurbolonSpray® ion source from Applied Biosystems (Foster City, Calif.). HPLC separation was performed on a Waters Atlantis dC18 column (3 μm 100×2.1 mm) with a Krud Katcher guard column from Phenomenex. Quantitation was carried out using the multiple reaction monitoring (MRM) with transition 185.1→165.1 for paraquat and 260.2→183.1 for propranolol. The lower and upper limit of the assay is 10 μM and 1000 μM, respectively. The quatitation of the assay employed a calibration curve which was constructed through plotting the analyte/IS peak area ration versus the nominal concentration of paraquat with a weighed 1/x^2 linear regression.
To test whether USP30 knockdown has an effect on organism survival, we monitored the percentage of live flies over prolonged treatment with paraquat (10 mM, 96 hours). […] We confirmed that the benefit of USP30 knockdown was not due to differences in exposure to paraquat since all three fly lines ingested roughly equal amounts of paraquat as measured by LC-MS/MS (average mass of paraquat per fly: UAS-dUSP30^RNAi: 3.2 μg, Actin-GAL4: 2.7 μg, Actin-GAL4>UAS-dUSP30R^RNAi: 2.7 μg). […]

[6] = test system: cultured hippocampal neurons; experiment: mt-Keima mitophagy index imaging in hippocampal neurons; assay type: cell-based, rat; conditions: relative to luciferase shRNA
Procedure: Dissociated hippocampal neuron cultures were prepared as described (Seeburg et al., Neuron 58: 571-583 (2008)) and transfected using Lipofectamine LTX PLUS at DIV 8-10. Constructs were expressed for 1-3 days for overexpression experiments and 3-4 days for knockdown experiments. mt-Keima-transfected neurons were imaged with a Leica TCS SP5 Laser Scanning Confocal microscope with a 40×/1.25 oil objective (0.07 μm/pixel resolution, […] confocal z-step size). Cells were kept in a humidified chamber maintained at 37° C./5% CO2 during imaging. Two images were acquired using a hybrid detector in sequential mode with 458 nm (neutral pH signal) and 543 nm (acidic pH signal) laser excitation, and emission fluorescence collected between 630-710 nm. All image quantification was performed by custom-written macros in ImageJ. For mt-Keima quantification, cell bodies were manually outlined and total area of high ratio (543 nm/458 nm) lysosomal signal was divided by the total area of somatic mitochondrial signal (mitophagy index).
To measure mitophagy in neurons, mt-Keima, a ratiometric pH-sensitive fluorescent protein that is targeted into the mitochondrial matrix, was monitored. A low ratio mt-Keima-derived fluorescence (543 nm/458 nm) reports neutral environment whereas a high ratio fluorescence reports acidic pH (Katayama et al., Chemistry & Biology 18: 1042-1094 (2011)). […]

[7] = test system: USP30; experiment: immunoblot of endogenous USP30 in neuronal cultures; assay type: cell-based, rat
Description: Adeno-associated virus type2 (AAV2) particles expressing Parkin, PINK1 and USP30 shRNAs were produced by Vector Biolabs, Inc. from pAAV-BASIC-CAGeGFP-WPRE vector containing the HI promoter and shRNA expression cassette of the pSuper vectors.
To test the function of endogenous USP30, USP30 was knocked down using shRNAs. In heterologous cells, rat USP30 shRNA plasmid specifically eliminated the expression of transfected rat USP30 cDNA (FIG. 5B). The same rat USP30 shRNA led to a ˜85% reduction in endogenous USP30 in neuronal cultures (FIG. 5C). In neurons, USP30 knockdown increased the lysosomal delivery of mt-Keima (˜60% increase in mitophagy index), relative to negative control luciferase shRNA (FIG. 5D, F).

[8] = test system: hippocampal neurons; experiment: mito-roGFP relative oxidation index imaging; assay type: cell-based, rat; conditions: 0 = after DTT, 1 = after aldrithiol; luciferase shRNA control ~0.6
Description: Whether USP30 knockdown provides functional benefit to mitochondria and cells was examined next. ROS—which largely derive from mitochondria—is associated with neurodegenerative disorders and mitochondria dysfunction may contribute to increased oxidative stress in PD (Lee et al., Biochem. J, 441: 523-540 (2012)). To measure oxidative stress in mitochondria, mitochondria matrix-targeted ro-GFP (mito-roGFP), a redox-sensitive fluorescent protein that allows quantitative ratiometric imaging of mitochondrial redox potential was used (Dooley et al., J. Biol. Chem. 279: 22284-22293 (2004)).

N[C@@H](Cc1ccc(O)c(O)c1)C(=O)O [L-DOPA]
rescue of paraquat-induced climbing defect [1]: fully rescued

CC(C)C[C@H](NC(=O)[C@@H]1CCCN1)C(=O)N[C@@H](Cc1ccc(O)cc1)C(=O)N[C@H]1CSSC[C@@H](C(=O)N[C@@H](Cc2ccccc2)C(=O)N[C@@H](Cc2ccc(O)cc2)C(=O)O)NC(=O)[C@H](CC(C)C)NC(=O)[C@H](Cc2ccc(O)cc2)NC(=O)CNC(=O)[C@H](Cc2ccc(O)cc2)NC(=O)[C@H]([C@@H](C)O)NC(=O)[C@H](CC(C)C)NC(=O)[C@H](CC(=O)O)NC(=O)[C@H](Cc2ccc(O)cc2)NC(=O)[C@H](Cc2ccccc2)NC1=O [USP30_3, PLYCFYDLTYGYLCFY] (H-PLYCFYDLTYGYLCFY-OH; disulfide 4-14; N-terminus and C-terminus assumed)
spot ELISA signal/noise ratio [2]: ~5

C[n+]1ccc(-c2cc[n+](C)cc2)cc1 [paraquat, paraquat dichloride]
flies alive [3]: < 15% | reduction in dopamine levels in fly heads [4]: 30-60% | average mass of paraquat per fly ([5]; Actin-GAL4>UAS-dUSP30^RNAi flies): 2.7 µg | average mass of paraquat per fly ([5]; Actin-GAL4 flies): 2.7 µg | average mass of paraquat per fly ([5]; UAS-dUSP30^RNAi flies): 3.2 µg

CCAGAGCCCTGTTCGGTTT ((CCAGAGCCCTGTTCGGTTT; as printed in the source, key not given here) [rat USP30 shRNA]
increase in mitophagy index [6]: ~60% | reduction in endogenous USP30 [7]: ~85% | relative oxidation index [8]: ~0.4
